Laboratory results as given in US20230085307A1, “PYRIDAZINONE COMPOUND AND HERBICIDE” (NISSAN CHEMICAL CORPORATION, priority 2019, published 2023).

What follows are molecules tested on southern crabgrass (assay: Test Example 5: herbicidal effect by foliage application, plastic box (Table 20, symbol F)). Conditions: foliage application, 320 g/ha, evaluated three weeks after application.
Format: in vivo, southern crabgrass (Digitaria ciliaris)
Method in brief: (§1)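 Foliar spray test: emulsion formulation diluted in water to a set application rate, sprayed onto 14-day-old plants raised in diluvial soil at 25° C to 30° C under glass. Both herbicidal effect and crop effect rated visually three weeks later.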

| Compound | herbicidal effect on F: southern crabgrass (criteria 0-5) |
| --- | --- |
| CCCC(=O)Oc1c(C)nn(C)c(=O)c1-c1c(-c2ccc(OC3CC3)cc2)sc2ccc(F)cc12 [2-218] | 0 (Herbicidal rate of 5% or less (almost no effect)) |

These molecules were tested on blackgrass (assay: Test Example 4: herbicidal effect by soil treatment (Table 19, symbol J)). Conditions: amount of applied herbicide 320 g/ha.
Format: in vivo, blackgrass (Alopecurus myosuroides)
Method in brief: (§2)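 Herbicidal effect was rated 3 weeks after treatment, using the scoring criteria of an earlier test. The compound, formulated as an emulsion and diluted in water to a set herbicide amount, had been sprayed uniformly on soil over freshly sown seeds. Growth took place in a greenhouse at 25° C. to 30° C.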

| Compound | J: blackgrass, herbicidal effect rating |
| --- | --- |
| CCCC(=O)Oc1c(C)nn(C)c(=O)c1-c1c(-c2ccc(OC3CC3)cc2)sc2ccc(F)cc12 [2-218] | 0 (Herbicidal rate of 5% or less (almost no effect)) |

What follows are molecules tested on Japanese bulrush (assay: Test Example 2: herbicidal activity, application during weed generation under submerged conditions (Table 17, symbol B)). Conditions: AAH 320 g/ha; application during weed generation, submerged conditions.
Format: in vivo, Japanese bulrush (Schoenoplectus juncoides)
Method in brief: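 Steps: fill Wagner pots with alluvial soil; add water to give 4 cm depth; sow the species mixed; grow under glass at 25–30° C.; at 1–2 leaves apply water-diluted emulsion formulation to the water surface at a fixed herbicide amount; score after 3 weeks.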

| Compound | herbicidal effect rating, B: Japanese bulrush |
| --- | --- |
| CCCC(=O)Oc1c(C)nn(C)c(=O)c1-c1c(-c2ccc(OC3CC3)cc2)sc2ccc(F)cc12 [2-218] | 3 (Herbicidal rate of 40% or more and less than 70%) |

The molecules below were run on oval-leafed pondweed (assay: Test Example 1: herbicidal activity, application before weed generation under submerged conditions (Table 16, symbol C)). Conditions: 320 g/ha applied herbicide.
Format: in vivo, oval-leafed pondweed (Monochoria vaginalis)
Method in brief: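 Submerged Wagner pots (alluvial soil, 4 cm water) sown with weed seeds and planted with 2.5-leaf rice seedlings; emulsifiable concentrate diluted in water applied to water surface on sowing day. Held in greenhouse at 25-30 °C; injury scored 0-5 by herbicidal rate after three weeks.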

| Compound | Herbicidal effect on C: oval-leafed pondweed (grade 0-5) |
| --- | --- |
| CCCC(=O)Oc1c(C)nn(C)c(=O)c1-c1c(-c2ccc(OC3CC3)cc2)sc2ccc(F)cc12 [2-218] | 5 (Herbicidal rate of 90% or more (almost completely withered)) |

What follows are molecules tested on green foxtail (assay: Test Example 4: herbicidal effect by soil treatment (Table 19, symbol G)). Conditions: amount of applied herbicide 320 g/ha.
Format: in vivo, green foxtail (Setaria viridis)
Method in brief: as §2

| Compound | G: green foxtail, herbicidal effect rating |
| --- | --- |
| CCCC(=O)Oc1c(C)nn(C)c(=O)c1-c1c(-c2ccc(OC3CC3)cc2)sc2ccc(F)cc12 [2-218] | 0 (Herbicidal rate of 5% or less (almost no effect)) |

These molecules were tested on velvetleaf (assay: Test Example 4: herbicidal effect by soil treatment (Table 19, symbol M)). Conditions: amount of applied herbicide 320 g/ha.
Format: in vivo, velvetleaf (Abutilon theophrasti)
Method in brief: as §2

| Compound | M: velvetleaf, herbicidal effect rating |
| --- | --- |
| CCCC(=O)Oc1c(C)nn(C)c(=O)c1-c1c(-c2ccc(OC3CC3)cc2)sc2ccc(F)cc12 [2-218] | 0 (Herbicidal rate of 5% or less (almost no effect)) |

The molecules below were run on wild oat (assay: Test Example 4: herbicidal effect by soil treatment (Table 19, symbol I)). Conditions: amount of applied herbicide 320 g/ha.
Format: in vivo, wild oat (Avena fatua)
Method in brief: as §2

| Compound | I: wild oat, herbicidal effect rating |
| --- | --- |
| CCCC(=O)Oc1c(C)nn(C)c(=O)c1-c1c(-c2ccc(OC3CC3)cc2)sc2ccc(F)cc12 [2-218] | 0 (Herbicidal rate of 5% or less (almost no effect)) |

What follows are molecules tested on chickweed (assay: Test Example 5: herbicidal effect by foliage application, plastic box (Table 20, symbol P)). Conditions: foliage application, 320 g/ha, evaluated three weeks after application.
Format: in vivo, common chickweed (Stellaria media)
Method in brief: as §1

| Compound | herbicidal effect on P: chickweed (criteria 0-5) |
| --- | --- |
| CCCC(=O)Oc1c(C)nn(C)c(=O)c1-c1c(-c2ccc(OC3CC3)cc2)sc2ccc(F)cc12 [2-218] | 5 (Herbicidal rate of 90% or more (almost completely withered)) |

These molecules were tested on barnyard grass (assay: Test Example 4: herbicidal effect by soil treatment (Table 19, symbol H)). Conditions: amount of applied herbicide 320 g/ha.
Format: in vivo, barnyard grass (Echinochloa crus-galli)
Method in brief: as §2

| Compound | H: barnyard grass, herbicidal effect rating |
| --- | --- |
| CCCC(=O)Oc1c(C)nn(C)c(=O)c1-c1c(-c2ccc(OC3CC3)cc2)sc2ccc(F)cc12 [2-218] | 0 (Herbicidal rate of 5% or less (almost no effect)) |

These molecules were tested on lambsquarters (assay: Test Example 5: herbicidal effect by foliage application, plastic box (Table 20, symbol O)). Conditions: foliage application, 320 g/ha, evaluated three weeks after application.
Format: in vivo, lambsquarters (Chenopodium album)
Method in brief: as §1

| Compound | herbicidal effect on O: lambsquarters (criteria 0-5) |
| --- | --- |
| CCCC(=O)Oc1c(C)nn(C)c(=O)c1-c1c(-c2ccc(OC3CC3)cc2)sc2ccc(F)cc12 [2-218] | 5 (Herbicidal rate of 90% or more (almost completely withered)) |

What follows are molecules tested on chickweed (assay: Test Example 4: herbicidal effect by soil treatment (Table 19, symbol P)). Conditions: amount of applied herbicide 320 g/ha.
Format: in vivo, common chickweed (Stellaria media)
Method in brief: as §2

| Compound | P: chickweed, herbicidal effect rating |
| --- | --- |
| CCCC(=O)Oc1c(C)nn(C)c(=O)c1-c1c(-c2ccc(OC3CC3)cc2)sc2ccc(F)cc12 [2-218] | 1 (Herbicidal rate of 5% or more and less than 20%) |

The molecules below were run on southern crabgrass (assay: Test Example 4: herbicidal effect by soil treatment (Table 19, symbol F)). Conditions: amount of applied herbicide 320 g/ha.
Format: in vivo, southern crabgrass (Digitaria ciliaris)
Method in brief: as §2

| Compound | F: southern crabgrass, herbicidal effect rating |
| --- | --- |
| CCCC(=O)Oc1c(C)nn(C)c(=O)c1-c1c(-c2ccc(OC3CC3)cc2)sc2ccc(F)cc12 [2-218] | 0 (Herbicidal rate of 5% or less (almost no effect)) |

What follows are molecules tested on persian speedwell (assay: Test Example 5: herbicidal effect by foliage application, plastic box (Table 20, symbol R)). Conditions: foliage application, 320 g/ha, evaluated three weeks after application.
Format: in vivo, Persian speedwell (Veronica persica)
Method in brief: as §1

| Compound | herbicidal effect on R: persian speedwell (criteria 0-5) |
| --- | --- |
| CCCC(=O)Oc1c(C)nn(C)c(=O)c1-c1c(-c2ccc(OC3CC3)cc2)sc2ccc(F)cc12 [2-218] | 5 (Herbicidal rate of 90% or more (almost completely withered)) |

Each molecule was assayed on velvetleaf (assay: Test Example 5: herbicidal effect by foliage application, plastic box (Table 20, symbol M)). Conditions: foliage application, 320 g/ha, evaluated three weeks after application.
Format: in vivo, velvetleaf (Abutilon theophrasti)
Method in brief: as §1

| Compound | herbicidal effect on M: velvetleaf (criteria 0-5) |
| --- | --- |
| CCCC(=O)Oc1c(C)nn(C)c(=O)c1-c1c(-c2ccc(OC3CC3)cc2)sc2ccc(F)cc12 [2-218] | 5 (Herbicidal rate of 90% or more (almost completely withered)) |

The molecules below were run on lambsquarters (assay: Test Example 4: herbicidal effect by soil treatment (Table 19, symbol O)). Conditions: amount of applied herbicide 320 g/ha.
Format: in vivo, lambsquarters (Chenopodium album)
Method in brief: as §2

| Compound | O: lambsquarters, herbicidal effect rating |
| --- | --- |
| CCCC(=O)Oc1c(C)nn(C)c(=O)c1-c1c(-c2ccc(OC3CC3)cc2)sc2ccc(F)cc12 [2-218] | 4 (Herbicidal rate of 70% or more and less than 90%) |

These molecules were tested on persian speedwell (assay: Test Example 4: herbicidal effect by soil treatment (Table 19, symbol R)). Conditions: amount of applied herbicide 320 g/ha.
Format: in vivo, Persian speedwell (Veronica persica)
Method in brief: as §2

| Compound | R: persian speedwell, herbicidal effect rating |
| --- | --- |
| CCCC(=O)Oc1c(C)nn(C)c(=O)c1-c1c(-c2ccc(OC3CC3)cc2)sc2ccc(F)cc12 [2-218] | 4 (Herbicidal rate of 70% or more and less than 90%) |

Each molecule was assayed on windgrass (assay: Test Example 5: herbicidal effect by foliage application, plastic box (Table 20, symbol L)). Conditions: foliage application, 320 g/ha, evaluated three weeks after application.
Format: in vivo, windgrass (Apera spica-venti)
Method in brief: as §1

| Compound | herbicidal effect on L: windgrass (criteria 0-5) |
| --- | --- |
| CCCC(=O)Oc1c(C)nn(C)c(=O)c1-c1c(-c2ccc(OC3CC3)cc2)sc2ccc(F)cc12 [2-218] | 5 (Herbicidal rate of 90% or more (almost completely withered)) |
